For experiment [1], the target named is T1, Tubulin (Bos taurus) (UniProt Q6B856+Q862L2+Q862F3). Put plainly: Inhibition of tubulin polymerization in bovine brain at 3.33 uM.
Experiment [2] concerns A-431. Nature of the experiment: Cell cycle arrest in A431 cells by accumulation at G2/M phase cell at 0.1uM. It is filed as functional. To be noted: Homo sapiens.
In experiment [3] the test system is A-431. Nature of the experiment: Cell cycle arrest in A431 cells by accumulation at G2/M phase cell. To be noted: Homo sapiens. It is filed as functional, cell-based.
The next experiment has as its target Tubulin. Put plainly: Displacement of [3H]colchicine from tubulin. It is filed as protein-complex assay, Homo sapiens.
In experiment [4] the target is T1, Tubulin (Bos taurus). Conditions: at 10 µM.
Description: Inhibition of tubulin polymerization in bovine brain at 10 uM
In experiment [5] the test system is A-431. Nature of the experiment: Antiproliferative activity against A431 tumor cells by sulforhodamine B assay. It is filed as functional. Conditions: Homo sapiens.
For the next experiment, the system named is A498. Nature of the experiment: Antiproliferative activity against A498 tumor cells by sulforhodamine B assay. The class given is functional. Conditions: Homo sapiens.
The next experiment relates to DLD-1. Put plainly: Antiproliferative activity against DLD1 tumor cells by sulforhodamine B assay. The class given is functional. To be noted: Homo sapiens.
The subject of a further experiment is DU-145. Nature of the experiment: Antiproliferative activity against DU145 tumor cells by sulforhodamine B assay. It is filed as functional. Conditions: Homo sapiens.
The next experiment has as its system NCI-H460. Put plainly: Antiproliferative activity against NCI-H460 tumor cells by sulforhodamine B assay. It is filed as functional. Conditions: Homo sapiens.
In another experiment the test system is LoVo. Put plainly: Antiproliferative activity against LoVo tumor cells by sulforhodamine B assay. The class given is functional. Conditions: Homo sapiens.
Another experiment relates to HCT-116. Put plainly: Antiproliferative activity against HCT116 tumor cells by sulforhodamine B assay. Conditions: Homo sapiens. The class given is functional.
In another experiment the test system is SNB-19. Put plainly: Antiproliferative activity against SNB19 tumor cells by sulforhodamine B assay. The class given is functional. To be noted: Homo sapiens.
For the next experiment, the system named is SK-OV-3. Put plainly: Antiproliferative activity against SKOV3 tumor cells by sulforhodamine B assay. It is filed as functional. To be noted: Homo sapiens.
Another experiment relates to NCI/ADR-RES. Put plainly: Antiproliferative activity against NCI/ADR-RES tumor cells by sulforhodamine B assay. It is filed as functional. Conditions: Homo sapiens.

With `COc1cc(OC)cc(Oc2ncccc2-c2n[nH]c(Nc3ccc4c(c3)OCO4)n2)c1`, the inhibition at Tubulin (Bos taurus) [1] was found to be 91%; on Tubulin (Bos taurus) [4], 98%. The inhibition at 0.1 µM with A-431 [2] amounted to 83%. Moreover, the EC50 with A-431 [3] worked out at 0.0072 µM. This compound showed a Ki at Tubulin of 0.01 µM.
Regarding `COc1cccc(Nc2nnc(-c3cccnc3Nc3cc(OC)cc(OC)c3)[nH]2)c1`, the inhibition constant (Ki) on Tubulin turned out to be 0.1 µM.
`COc1cc2c(c(OC)c1OC)-c1ccc(O)cc1[C@@H](N)CC2` [COLCHINOL]: the EC50 with A-431 [3] was determined as 0.0435 µM. This compound had a Ki at Tubulin of 1.85 µM.
With `COc1cc(Nc2ncccc2-c2n[nH]c(Nc3ccc4c(c3)OCO4)n2)cc(OC)c1`, testing at 0.1 µM with A-431 [2] gave an inhibition of 85%. Also, in the experiment with A-431 [3], a half-maximal response (EC50) required 0.062 µM. On Tubulin, this compound returned a Ki of 0.06 µM. This compound had an inhibition on Tubulin (Bos taurus) [4] of 87%.
In the experiment with A-431 [2], `COc1cccc(Nc2n[nH]c(-c3cccnc3Nc3cc(OC)cc(OC)c3)n2)c1` displayed an inhibition at 0.1 µM of 72%. For the same compound, the GI50 was found to be 0.05 µM in the experiment on A-431 [5]; 0.06 µM with A498; 0.07 µM in the experiment on DLD-1; 0.02 µM in the experiment with DU-145; 0.01 µM with NCI-H460; 0.02 µM with LoVo. In addition, the GI50 in the experiment with HCT-116 came out at 0.4 µM; with SNB-19, 0.15 µM; in the experiment on SK-OV-3 it was 0.22 µM; in the experiment on NCI/ADR-RES, 0.15 µM. Further, a half-maximal response in the experiment on A-431 [3] (EC50) required 0.09 µM. The inhibition against Tubulin (Bos taurus) [4] worked out at 80%.
`COc1cc(OC)cc(Oc2ccccc2-c2n[nH]c(Nc3ccc4c(c3)OCCO4)n2)c1` returned an inhibition on Tubulin (Bos taurus) [1] of 65%. Besides, at 0.1 µM the inhibition in the experiment with A-431 [2] was 82%. In the experiment with A-431 [3], the EC50 was determined as 0.0066 µM.
For `COc1cc(OC)cc(Oc2ncccc2-c2n[nH]c(Nc3ccc(N(C)C)cc3)n2)c1`, the figures for the inhibition against Tubulin (Bos taurus) [1] and against Tubulin (Bos taurus) [4] were 76% and 98%, respectively. The compound also came in with an inhibition at 0.1 µM in the experiment on A-431 [2] of 86%. The compound further gave an EC50 in the experiment on A-431 [3] of 0.031 µM.
As for `COc1cc(OC)cc(Oc2ccncc2-c2n[nH]c(Nc3ccc4c(c3)OCCO4)n2)c1`, the inhibition on Tubulin (Bos taurus) [1] turned out to be 96%. For the same compound, testing at 0.1 µM in the experiment on A-431 [2] gave an inhibition of 86%. Further, the EC50 with A-431 [3] was found to be 0.013 µM.
As for `COc1cc(Nc2n[nH]c(-c3cccnc3Oc3cc(OC)cc(OC)c3)n2)cc(OC)c1`, the inhibition at Tubulin (Bos taurus) [1] was determined as 73%; against Tubulin (Bos taurus) [4], 99%. The compound also showed an inhibition at 0.1 µM with A-431 [2] of 87%. Moreover, the response in the experiment on A-431 [3] was half-maximal at 0.023 µM (EC50).
Compound `COc1cc(OC)cc(Oc2ncncc2-c2n[nH]c(Nc3ccc4c(c3)OCCO4)n2)c1` had an inhibition at Tubulin (Bos taurus) [1] of 69%. The inhibition at 0.1 µM in the experiment on A-431 [2] amounted to 83%. Further, the EC50 with A-431 [3] was found to be 0.044 µM.
For `COc1cc(OC)cc(Oc2ncccc2-c2n[nH]c(Nc3cccc(O)c3)n2)c1`, the figures for the inhibition at Tubulin (Bos taurus) [1] and against Tubulin (Bos taurus) [4] were 83% and 100%, respectively. This compound showed an inhibition at 0.1 µM with A-431 [2] of 86%. Further, the EC50 with A-431 [3] stood at 0.01 µM.
As for `COc1cc(O)cc(Oc2ncccc2-c2n[nH]c(Nc3ccc4c(c3)OCO4)n2)c1`, the inhibition against Tubulin (Bos taurus) [1] worked out at 80%. This compound also had an inhibition at 0.1 µM in the experiment on A-431 [2] of 83%. In addition, the EC50 with A-431 [3] was determined as 0.012 µM.
In turn, `CN(C)c1cccc(Oc2ncccc2-c2n[nH]c(Nc3ccc4c(c3)OCO4)n2)c1` yielded an inhibition at Tubulin (Bos taurus) [1] of 53%. Testing at 0.1 µM in the experiment with A-431 [2] gave an inhibition of 63%. In the experiment on A-431 [3], this compound had an EC50 of 0.011 µM.
As to `COc1cc(Nc2ncccc2-c2nnc(Nc3ccc4c(c3)OCCO4)[nH]2)cc(OC)c1`, the Ki on Tubulin was 0.16 µM.
Consider `COc1cccc(Nc2n[nH]c(-c3cccnc3Oc3cc(OC)cc(OC)c3)n2)c1`, for which the inhibition against Tubulin (Bos taurus) [1] and at Tubulin (Bos taurus) [4] was 100% each time. 0.1 µM produced 83% inhibition in the experiment on A-431 [2]. This compound showed an EC50 in the experiment on A-431 [3] of 0.021 µM. The same compound gave a Ki at Tubulin of 0.05 µM.
Turning to `COc1cc(OC)cc(Oc2ncccc2-c2n[nH]c(Nc3ccc4c(c3)OCCO4)n2)c1`, the figures for the inhibition on Tubulin (Bos taurus) [1] and against Tubulin (Bos taurus) [4] were 88% and 100%, respectively. At 0.1 µM the inhibition in the experiment with A-431 [2] was 89%. Moreover, the EC50 in the experiment with A-431 [3] is 0.0036 µM. The compound further came in with a Ki on Tubulin of 0.02 µM.
Regarding `Cc1cc(C)cc(Oc2ncccc2-c2n[nH]c(Nc3ccc4c(c3)OCO4)n2)c1`, the inhibition at Tubulin (Bos taurus) [1] was 52%. Also, the inhibition at 0.1 µM with A-431 [2] was 83%. Also, the EC50 in the experiment with A-431 [3] was determined as 0.01 µM.
On to `COc1cc(Oc2ncccc2-c2n[nH]c(Nc3ccc4c(c3)OCO4)n2)cc(OC)c1OC`, for which the inhibition at Tubulin (Bos taurus) [1] was found to be 89%. The compound also returned an inhibition at 0.1 µM with A-431 [2] of 86%. For the same compound, the EC50 with A-431 [3] is 0.016 µM.
